Assay results: US10071989B2, “Substituted cinnamamide derivative, preparation method and use thereof” (TASLY PHARMACEUTICAL GROUP CO., LTD., priority 2011, dated 2018)
“Also recorded” adds a separate entry of the source. Where a name gives a salt, the structure may show the parent alone. Read-outs that look alike come from different tables or passages of the source. Marks after values point to notes of the source that are not given here.

Tests used:
Format in all cases: in vivo
[1] = system: C57BL/6 mice; test: Depression model test of anti-blepharoptosis caused by reserpine (akinesia, blepharoptosis, shell temperature); conditions: for Blepharoptosis, “out-of-circle” ratio and shell temperature after reserpine (effect in words) / Change in the shell temperature (ΔT ° C.) / Degree of eye-closure / responders at 10 mg/kg / Change in the shell temperature (T ° C.): 10 mg/kg intragastric 7 days; for Blepharoptosis, “out-of-circle” ratio and shell temperature after reserpine (effect in words): compared with the solvent control group; for “out-of-circle” ratio after reserpine compared with I-1 (in words): compared with I-1, p<0.05; for Change in the shell temperature (ΔT ° C.) / Degree of eye-closure / responders at 10 mg/kg / Change in the shell temperature (T ° C.): reserpine 4 mg/kg i.p.; for Change in the shell temperature (ΔT ° C.) / Change in the shell temperature (T ° C.): abdomen, two hours after reserpine; for Change in the shell temperature (ΔT ° C.) / Degree of eye-closure / Change in the shell temperature (T ° C.): ±SD; for Degree of eye-closure: score 0-4 one hour after reserpine; for responders at 10 mg/kg: Mus musculus, po, 1 h, one hour after reserpine, 7.5 cm circle, 15-second observation, read-out: “out-of-circle” ratio
Protocol: 120 male C57BL/6 mice were randomly selected to observe the number of their autonomic activity. The mice was placed into the YLS-1A multi-functional mice autonomic activity recorder, and after 1 min of adaption, the activity of the mice was counted within a time period from the end of 1st min to 4th min. 96 mice with the number of autonomic activity between 70˜140 were screened out, divided randomly into 8 groups, and intragastrically administrated with the drug compounds at a dose listed in Table 3, one time daily for 7 days consecutively. The solvent control group was administrated with 2% Tween-80 aqueous solution in the same volume. Except the normal control group, 30 min after the last administration, each group was injected intraperitoneally with reserpine at a dose of 4 mg/kg. Next, akinesia, blepharoptosis and shell temperature were observed.
I Akinesia: one hour after intraperitoneal injection of reserpine, the mice were placed at the center of a circle with a diameter of 7.5 cm for a 15-second observation to calculate the “out-of-circle” ratio.
II Blepharoptosis: one hour after intraperitoneal injection of reserpine, the eye closure of mice was observed and scored by the following standard: eyelids open, 0; eyelids ¼ closed, 1; eyelids 2/4 closed, 2; eyelids ¾ closed, 3; eyelids closed completely, 4.
III Shell temperature: two hours after intraperitoneal injection of reserpine, the shell temperature of the abdomen of the mice was measured.
120 C57BL/6 mice were randomly selected to observe the number of their autonomic activity. The method was the same with that of Experiment 1. 100 mice with the number of autonomic activity between 70˜140 were screened out, divided randomly into 10 groups, and intragastrically administrated with the drug compounds at a dose listed in Table 4, one time daily for 7 days consecutively. The mice in the normal group and the solvent control group were administrated with 2% Tween-80 aqueous solution in the same volume. Except the normal control group, 30 min after the last administration, each group was injected intraperitoneally with reserpine at a dose of 4 mg/kg. Next, akinesia, blepharoptosis and shell temperature were observed. Observation method was the same with that of Experiment 1.

[2] = system: C57BL/6 mice; test: Number of autonomic activity of mice (YLS-1A autonomic activity recorder); conditions: for Number of Autonomic activity (time): 10 mg/kg intragastric once daily, counted 30 min after administration at 6th day; for Effect on autonomic activity of mice (in words): 10 mg/kg intragastric, one week, compared with the solvent control group
Protocol: 110 mice were randomly selected to observe the number of their autonomic activity. The mice was placed into the YLS-1A multi-functional mice autonomic activity recorder, and after 1 min of adaption, the mice's activity was counted within a time period from the end of 1st min to 4th min. 96 mice with the number of autonomic activity between 70˜140 were screened out, divided randomly into 8 groups, and intragastrically administrated with the drug compounds at a dose listed in Table 1, one time daily for 7 days consecutively. The solvent control group was administrated with 2% Tween-80 aqueous solution in the same volume. All mice were placed into the autonomic activity recorder 30 min after administration at 6th day. After 1 min of adaption, the mice's activity was counted within a time period from the end of 1st min to 4th min.
(§1) 130 mice were randomly selected to observe the number of their autonomic activity. The method was the same with that of Experiment 1. 108 mice with the number of autonomic activity between 70˜140 were screened out, divided randomly into 9 groups, and intragastrically administrated with the drug compounds at a dose listed in Table 2, one time daily for 7 days consecutively. The solvent control group was administrated with 2% Tween-80 aqueous solution in the same volume. 30 min after administration at 6th day, the number of the autonomic activity of each mouse was observed. 30 min after administration at 7th day, the immobility time in tail suspension test was observed. The method was the same with that in Experiment 1.

[3] = system: C57BL/6 mice; test: "Acquired despair" depression model of tail suspension test in mice; conditions: for Effect on immobility time in tail suspension test (in words): 10 mg/kg intragastric for 7 days, compared with the solvent control group
Protocol: 30 min after administration at 7th day, the mice was fixed on a sustainer with a rubberized cloth at 1 cm close to the end of the tail of mice, making the mice hanged upside down. The head of the mice was about 30 cm above the table and its sight was separated from the neighboring mouse with a plate. Usually, the mice might manage to struggle in hopes of overcoming the abnormal body position. […] The accumulated immobility time within 6 min of each mouse was observed, which was regarded as “despair time”.
as §1

[4] = system: mice; test: Anti-depression effect in the tested models (overall conclusion); conditions: in the tested model at the tested dose
From the text: Based on the aforesaid experiments, the following conclusion can be drawn: • 1.

[5] = system: C57BL/6 mice; test: Forced swimming experiment in mice; conditions: 10 mg/kg intragastric once daily for 7 days; 30 min after last administration; end of 2nd min to 6th min
Protocol: After 1˜2 days of adaptive feed, 80 male C57BL/6 mice, aged 6˜8 weeks and weighing 18˜22 g, were placed into the YLS-1A multi-functional mice autonomic activity recorder. After 1 min of adaption, the activity of the mice was counted within a time period from the end of 1st min to 4th min. 60 mice with the number of autonomic activity between 70˜140 were screened out, divided randomly into 6 groups, and intragastrically administrated with the drug compounds at a dose listed in Table 5, one time daily for 7 days consecutively. The solvent control group was administrated with 2% Tween-80 aqueous solution in the same volume. After the administration at 6th day, the mice were placed into a cylindrical aquarium with a water depth of 10 cm and 25° C. to force the mice to swim. After 15 min, the mice were taken out, dried and returned to the cage. 24 hours later, 30 min after the last intragastrical administration, the mice were placed into a glass bottle with a diameter of 10 cm, a height of 30 cm and a water depth of 10 cm, and the temperature of the water in the bottle was at 25° C. The mice were separated with an opaque partition, so as not to influence each other. After 2 min of adaption, an accumulated immobility time from the end of 2nd min to 6th min was recorded.

[6] = Experiment 1, end of 1st min to 4th min

SMILES	Blepharoptosis, “out-of-circle” ratio and shell temperature after reserpine (effect in words) [1]	“out-of-circle” ratio after reserpine compared with I-1 (in words) ([1]; 10 mg/kg)	Change in the shell temperature (ΔT ° C.) ([1]; Experiment 1) [°C]	Degree of eye-closure ([1]; Experiment 1)	responders at 10 mg/kg ([1]; Experiment 1) [%]	Number of Autonomic activity (time) [2, 6] [time]	Degree of eye closure / blepharoptosis after reserpine compared with I-1 (in words) ([1]; 10 mg/kg)	Effect on immobility time in tail suspension test (in words) [3]	Effect on antagonizing immobility in tail suspension test compared with I-1 (in words) ([3]; 10 mg/kg, compared with I-1, p<0.05)	Improving akinesia, blepharoptosis and shell temperature: ranking among the tested compounds (in words) ([1]; 10 mg/kg, within the experiment)	Anti-depression effect compared with the pharmacologic effect of I-1 (in words) [4]	Effect on autonomic activity of mice (in words) [2]	Change in the shell temperature (T ° C.) ([1]; Experiment 2) [°C]	Degree of eye-closure ([1]; Experiment 2)	responders at 10 mg/kg ([1]; Experiment 2) [%]	Number of Autonomic activity (time) ([2]; Experiment 2)	Immobility time in the forced swimming test in mice(s) [5] [s]	Blepharoptosis, “out-of-circle” ratio and shell temperature after reserpine (effect in words) ([1]; hydrochloride)
CC(C)CNC(=O)/C=C/c1cc2c(c([N+](=O)[O-])c1)OCO2 [Compound I-2, N-isobutyl-5′-nitro-3′,4′-methylenedioxy cinnamamide]	improved significantly	increased markedly	1.60 ± 0.18	1.67 ± 1.30	83	102.00 ± 26.24	–	–	–	–	–	–	–	–	–	–	–	–
CC(C)CNC(=O)/C=C/c1cc(I)c2c(c1)OCO2 [Compound I-3, N-isobutyl-5′-iodo-3′,4′-methylenedioxy cinnamamide]	improved significantly	increased markedly	1.72 ± 0.26	1.00 ± 1.13**^ΔΔ	92	94.42 ± 23.97	reduced	–	–	–	–	–	–	–	–	–	–	–
CC(C)CNC(=O)/C=C/c1cc(Cl)c2c(c1)OCO2 [Compound I-4, N-isobutyl-5′-chloro-3′,4′-methylenedioxy cinnamamide]	improved significantly; also recorded: antagonizing the decrease of shell temperature, akinesia and improving the degree of eye closure	increased markedly	1.51 ± 0.31	0.17 ± 0.39**^ΔΔ	100	94.75 ± 28.53	reduced	remarkably reduce the immobility time; also recorded: significantly shorten the immobility time	better effect	best effect	increased to some degree	had no affect	–	–	–	–	–	–
COc1cc(/C=C/C=C/C(=O)NCC(C)C)cc2c1OCO2 [Compound I-6, N-isobutyl-5-(5′-methoxy-3′,4′-methylenedioxyphenyl)pentadienamide]	improved significantly	increased markedly	1.84 ± 0.22	2.08 ± 1.68	67	98.83 ± 17.56	–	–	–	–	–	–	–	–	–	–	–	–
CN(C)C(=O)/C=C/c1cc2c(c(C(F)(F)F)c1)OCO2 [Compound I-8, N,N-dimethyl-5′-trifluoromethyl-3′,4′-methylenedioxy cinnamamide]	remarkably improve; also recorded: antagonizing the decrease of shell temperature, akinesia and improving the degree of eye closure	–	–	–	–	–	–	–	–	–	–	–	27.60 ± 0.88	2.30 ± 1.64	40	84.00 ± 21.81	–	–
CCN(CC)C(=O)/C=C/c1cc2c(c(C(F)(F)F)c1)OCO2 [Compound I-9, N,N-diethyl-5′-trifluoromethyl-3′,4′-methylenedioxy cinnamamide]	remarkably improve; also recorded: antagonizing the decrease of shell temperature, akinesia and improving the degree of eye closure	–	–	–	–	–	increased improvement	reduce the immobility time of the mice in tail suspension test significantly; also recorded: significantly shorten the immobility time	–	–	increased to some degree	had no effect	28.70 ± 1.78	1.80 ± 1.23	30	83.60 ± 22.68	–	–
CNCCC(Oc1ccc(C(F)(F)F)cc1)c1ccccc1 (stereo not drawn) [fluoxetine hydrochloride, Fluoxetine hydrochloride, reference compound]	–	–	1.89 ± 0.21	1.42 ± 1.38**Δ	58	121.75 ± 24.14	–	reduce the immobility time in tail suspension test significantly	–	–	–	had no effect	29.20 ± 0.54	2.00 ± 1.33	50	102.0 ± 14.91	98.96 ± 32.43	obviously increase mice “out-of-circle” ratio and shell temperature, and significantly reduce the degree of eye closure of the mice; also recorded: improve the “out-of-circle” ratio obviously, and significantly reduce the degree of eye closure and raise the shell temperature
